Results published in paper PMC10182956 (Archives of Toxicology, 2023).
Several values for one entry are separate records, joined by “and”; a condition that tells them apart may be missing. Identical values can stand only once. Entries after “also recorded” stand apart in the source; their conditions may differ.

Experiments:
HepaRG cells [1] = assay: cells; conditions: Homo sapiens, 24 h, read-out: MMP: Benchmark concentration (µM) per imaging endpoint calculated with BMDS software
[2] = atrazine: increase relative liver weight, ref Aguilar et al. [2009], ATSDR [2003], Food and Authority [2009a], Food and Authority [2009b], cited from earlier work
HepaRG cells [3] = conditions: for Mitochondrial membrane potential response (in words): population level, threshold ± 2 standard deviations of the response at the two lowest concentrations
[4] = cited from earlier work
HepaRG cells [5] = assay: High-content imaging assay: lipid accumulation (Bodipy lipid droplets); format: cell-based; conditions: HepaRG 24 h; for Lipid accumulation response (in words): population level, threshold ± 2 standard deviations of the response at the two lowest concentrations; for EC (BMC, 1 SD from control): Homo sapiens, lipid accumulation, Supplementary table 3, read-out: LA: Benchmark concentration (µM) per imaging endpoint calculated with BMDS software
[6] = for OED: IVIVE derived median over all positive imaging endpoints, human simulation, Table 2
Description: In our study, a three-compartment steady state pharmacokinetic (PK) model was parameterized and used for the simulations. […] Human data were used except where otherwise stated. Steady-state concentration (Css) in the blood was calculated using formula 1 (Pearce et al. [2017])1 Cssmg/l=ko/(GFR×fup+Qliver+Qgut×fup×Clmetabolism/Qliver+Qgut+fup×Clmetabolism/Rblood2plasma) where ko = constant dose rate (mg/kg BW/day), fup = in vitro measured chemical fraction unbound in plasma, Clmetabolism = metabolic clearance scaled from in vitro intrinsic hepatic clearance, Rblood2plasma = ratio of blood concentration of a chemical to the plasma concentration, GFR = glomerular filtration rate (mean 5.17 ml/min/kg^3/4), Qliver = blood flow to the liver (mean 59.9 ml/min/kg^3/4), and Qgut = blood flow to the gut (mean 47.5 ml/min/kg^3/4). Fraction unbound, metabolic clearance, and Rblood2plasma values were obtained from the httk package or from literature. Recognizing that formula 1 is linear in dose rate (ko), oral equivalent doses (OED) were then calculated using the Css predicted for a 1 mg/kg/day dose rate as in formula 2 (Rotroff et al. [2010]).2 OEDmg/kg/day=BMCuM×1mg/kg/day/CssuM
The calculated OED corresponds to an oral daily dose which would lead to a plasma concentration equal to the in vitro-derived BMC. The OED is linearly related to the BMC and inversely related to Css. This equation is only valid for first-order metabolism (Rotroff et al. [2010]). A Monte Carlo analysis was used to simulate population variability in, GFR, Qliver, Qgut, and Clmetabolism across 1000 healthy individuals. Extrapolations were performed for each chemical and endpoint which was positive in the imaging assay. Every predicted parameter per chemical was then combined into one boxplot per endpoint, which contained all predicted OEDs across all positive endpoints.
Vice versa, predicted OED derived from BMC were compared to published exposure values of the corresponding chemicals. Simulations were performed in humans where pharmacokinetic parameters for humans were available; otherwise, estimations were calculated in rats or rabbits, as stated in Fig. 7.

HepaRG cells [7] = conditions: for Oxidative stress response (in words): population level, threshold ± 2 standard deviations of the response at the two lowest concentrations
[8] = parameters: method as in Literature column of Supplementary table 4; conditions: value added to httk database; ref Supplementary table 4; cited from earlier work
[9] = Published in vivo pharmacokinetics (Css, plasma concentration, clearance); conditions: human; for hepatocyte CLint: hepatocytes (back-calculated, no incubation), in vitro intrinsic hepatic clearance calculated from in vivo clearance with formula 3, read-out: Calculated Clint (ul/min/10^6 cells); for In vivo Css (µM): calculated with Css = (Dose*F)/(Cl*dosing interval) or k0/Cl from published pharmacokinetic parameters, ref Bowsher et al. 1994, Welling et al. 1977
Description: For the model evaluation, Css of selected reference chemicals were predicted using formula 1 with the same dose rate from the in vivo Css measurements. […] The formula to calculate Clint was derived from the function calc_hepatic_clearance within the httk package. Predicted Css values were then compared to published in vivo Css values. If there was no published in vivo Css available, Css was then calculated based on published in vivo pharmacokinetic parameters using the following formula (Supplementary table 3)4 Css(mg/L)=(Dose×F)/(Cl×dosinginterval)
Supplementary table 3. Comparison of benchmark concentration and predicted Css with published pharmacokinetic values. Where indicated, in vivo derived Css values were calculated using following formula: Css = (Dose*F)/(Cl*dosing interval) or Css = k0/Cl with F = bioavailability, Cl = clearance, k0 = infusion rate and Css = steady state concentration.

HepaRG cells [10] = assay: cells; conditions: Homo sapiens, 24 h, read-out: NM: Benchmark concentration (µM) per imaging endpoint calculated with BMDS software
Description: (§1) Cellular responses were quantified using a high-content imaging approach (Fig. 1). Based on cell viability assessment, concentrations below the EC50 level were tested in the high-content imaging assay. After 24 h chemical exposure, live cells were incubated with CellROX, which reflects hydroxyl radi [...

[11] = parameters: method as in earlier work; conditions: fraction unbound plasma; human; ref Aegerion Pharmaceuticals 2012; Bowsher et al. 1994; Scheen 1996; cited from earlier work
HepaRG cells [12] = assay: Cell viability assessment (WST-1 assay); format: cell-based, human; conditions: Homo sapiens, 24 h exposure, reference chemicals, 95% CI in brackets, read-out: EC50 µM (95% CI) from cell viability (WST-1)
Source text: Undifferentiated HepaRG cells were purchased from Biopredic international (Saint Grégoire, France). HepaRG cells have unlimited growth capacity and phenotypic stability, stable enzymatic activities over 4 weeks of cultivation, and similar metabolic function to primary human hepatocytes, and also avoid limitations of primary cells such as donor variability and phenotypic instability (Aninat et al. [2006]; Guillouzo et al. [2007]; Lambert et al. [2009]; Lübberstedt et al. [2011]; Andersson et al. [2012]). The line contains two cell types, hepatocyte-like and cholangiocyte-like cells (Parent et al. [2004]), which allows for elucidation of cell-specific toxicity (Jossé et al. [2008]). Cells were seeded at a density of approximately 27′000 cells/cm^2 into a 150 × 25 mm petri dish and were cultured for 2 weeks in William’s E medium (cat. nr.: 32,551,020, ThermoFisher Scientific, Massachusetts, USA) supplemented with 2 mM glutamine, 10% (v/v) fetal bovine serum (FBS) good forte (cat. nr.: P40-47,500, PAN-Biotech, Aidenbach, Germany), 100 U/ml penicillin and 100 µg/ml streptomycin (cat. nr.: 15,140,122, ThermoFisher Scientific, Massachusetts, USA), 5 µg/ml Gibco recombinant AOF insulin (cat. nr.: A11382II, ThermoFisher Scientific, Massachusetts, USA) and 50 µM hydrocortisone hemisuccinate (cat. nr.: H4881, Sigma-Aldrich, St. Louis, USA) at 37 °C and 5% CO2. Differentiation was induced by culturing the cells for another 2 weeks in the above mentioned medium supplemented with 1.7% DMSO. After 4 weeks in culture, differentiated HepaRG cells were seeded at a high density of approximately 227′000 cells/cm^2 (72,000 cells/well with 100 µl per well) into black 96-well plates with a clear bottom (cat.nr.: 3603, Corning, New York, USA) and maintained for 10 days. After 10 days, cells were first adapted to treatment medium (culture medium containing 0.5% DMSO and 2% FBS) for 48 h and then used for cell viability and high-content imaging analysis.
Cell viability was analyzed using the WST-1 assay which is based on the measurement of mitochondrial dehydrogenase activity (cat. nr: ab155902, Abcam, Cambridge, UK). HepaRG cells were exposed to chemicals at defined concentrations for 24 h. Triton X-100 (0.01%) was a positive control. One hour before the end of incubation period, 10 µl of WST-1 reagent was added to each well, quickly mixed by shaking the plate, and returned to the cell culture incubator (37 °C, 5% CO2). After 1 h, absorbance was measured (450 nm, reference wavelength 620 nm) using a plate reader (Infinite M200 Pro, Tecan group, Männerdorf, Switzerland). Absorbance was then subtracted from the reference wavelength, corrected for background by subtracting values measured without cells, and then normalized to the solvent control, which was set to 100%. Dose–response data were fitted using drc package (Version 3.0.1) (Ritz et al. [2015]) in R 3.6.1. Data were from at least 3 independent experiments with 6 technical replicates per condition.

HepaRG cells [13] = conditions: HepaRG 24 h, population level; threshold ± 2 standard deviations of the response at the two lowest concentrations
Description: as §1

[14] = human, ref Bowsher et al. 1994, Scheen 1996
[15] = single cell analysis, highest concentration 250 µM

Compound | EC (BMC, 1 SD from control) (HepaRG cells [1]) [µM] | Mitochondrial membrane potential response (in words) (HepaRG cells [3]; HepaRG 24 h) | Lipid accumulation response (in words) (HepaRG cells [5]) | Oxidative stress response (in words) (HepaRG cells [7]; HepaRG 24 h) | LogP [8] | hepatocyte CLint [9] [µL/min/1e6 cells] | In vivo Css (µM) [9] | EC (BMC) (HepaRG cells [10]) [µM] | Fup [11] | OED [6] [mg/kg/day] | EC50 (HepaRG cells [12]) [µM] | Concentration at which decrease of mitochondrial membrane potential exceeded the threshold (HepaRG cells [3]; HepaRG 24 h) | Number of apoptotic cells (nuclear morphology) response (in words) (HepaRG cells [13]) | EC (BMC, 1 SD from control) (HepaRG cells [5]) [µM] | other results
O=C(O)c1cc(=O)[nH]c(=O)[nH]1 [Orotic acid] | 423 | dose-dependent increase in MMP exceeding the threshold | did not stimulate lipid accumulation | – | – | – | – | – | – | – | – | – | – | – | NOAEL from literature (mg/kg BW/day) ([2]; first value of cell NOAEL/LOAEL): 50 mg/kg BW/day; LOAEL from literature (mg/kg BW/day) ([2]; second value of cell NOAEL/LOAEL): 100 mg/kg BW/day; In vivo blood plasma conc. ([4]; ref Aguilar et al. [2009], D’Apolito et al. [2012], Li et al. [2009]): 0.15 to 0.3 µM; OED (mg/kg BW/day) ([6]; IVIVE derived median with 95% CI, from BMC of positive imaging endpoint, oral, daily dosing, Table 1): 61.2 (95% CI 21.1–134) mg/kg BW/day; OED compared with reported NOAEL, LOAEL concentrations or the exposure estimate (in words) ([6]; human): overlapped
O=c1[nH]c(=O)n([C@@H]2O[C@H](CO)[C@@H](O)[C@@H]2F)cc1I [fialuridine] | 6.3 | increased MMP | neither induced lipid accumulation; also recorded: did not give rise to lipid accumulation | neither induced lipid accumulation, had any consistent impact on oxidative stress | -0.9 | 0.173 | 0.6^3 µM | 45.1 | 0.375 | 5.6 | – | – | – | – | Concentration at which increase of MMP (hyperpolarization) was observed / exceeded the threshold (HepaRG cells [3]; HepaRG 24 h): 25 µM; In vivo clearance (L/h): Nonrenal clearance [4, 14]: 2.06 L/h; In vivo clearance (L/h): Renal clearance [4, 14]: 4.21 L/h; In vivo clearance (L/h): Total clearance [4, 14]: 6.27 L/h
O=C(NC1CCN(CCCCC2(C(=O)NCC(F)(F)F)c3ccccc3-c3ccccc32)CC1)c1ccccc1-c1ccc(C(F)(F)F)cc1 [lomitapide] | 0.58 | – | not and did not give rise to lipid accumulation | no changes were observed | 8.2 | 48.3 | 0.0002^3 µM | 4 | 0.002 | 1333 | 13.5 | 12 µM | increased above the threshold | – | In vivo clearance (L/h) ([4]; human, after 50 mg p.o., ref Aegerion Pharmaceuticals 2012): 573.4656 (after 50 mg p.o.) L/h
CN(C)C(=N)N=C(N)N [metformin] | – | – | accumulated in a dose-dependent manner above the threshold; also recorded: having the potential to induce lipid accumulation | – | – | 4.01 | – | 1940 | 0.99 | 6778 | – | 50,000 µM | increased above the threshold | 987 | Concentration at which decrease of oxidative stress fell below the threshold (HepaRG cells [7]; HepaRG 24 h): 50,000 µM; In vivo Css ([4]; human, published, ref Birkett and Miners 1991, Graham et al. 2011, Freedman and Somberg 1991, Vasudev et al. 2001): 5.2 µM; Concentration at which lipid accumulation was induced (HepaRG cells [5]; increase): 25,000 µM and 50,000 µM
CN(C)[C@@H]1C(O)=C(C(N)=O)C(=O)[C@@]2(O)C(O)=C3C(=O)c4c(O)cccc4[C@@](C)(O)[C@H]3C[C@@H]12 [tetracycline] | 218 | – | accumulated in a dose-dependent manner above the threshold | – | – | – | 9.7^3 µM | 32.7 | – | 30.2 | 238 | 250 µM | increased above the threshold | 32.9 | Concentration at which increase of oxidative stress exceeded the threshold (HepaRG cells [7]; HepaRG 24 h): 125 µM and 250 µM; OS: Benchmark concentration (µM) per imaging endpoint calculated with BMDS software (HepaRG cells [7]; oxidative stress, HepaRG 24 h, Supplementary table 3): 69.7 µM; Oxidative stress in hepatocyte-like and cholangiocyte-like cells (in words) (HepaRG cells [7]; [15]): oxidative stress levels were elevated in both cell types; Mitochondrial membrane potential in hepatocyte-like and cholangiocyte-like cells (in words) (HepaRG cells [3]; [15]): decrease of mitochondrial membrane potential was observed in both cell types
